Our source for the EC50 values is PubChem BioAssay AID1902 (Broad Institute, 2009).

One may read the EC50 as the concentration needed to bring the measured effect to its halfway point.

Activity calls are given as the source filed them.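 Rule for the calls: active = EC50 no more than a set limit of log units above the highest dose; inactive = the rest.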

This test deals with S. pyogenes SKKanGAS, kanamycin survival, BacTiterGlo, 6 h. The experiment in a line: SKKanGAS survival reduction under kanamycin, dose response, streptokinase promoter inhibitor project, SKKanGAS strain, luminescence, dose confirmation (AID 1902).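 Note: lower survival reflects blocked streptokinase promoter driving kanamycin resistance gene.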
Turning to `COc1cc(/C=C/c2ccc3cccc(O)c3n2)c(Br)cc1O`, the EC50 is 0.35 µM. `Cc1cc(/C=C2\SC(=S)NC2=O)c(C)n1-c1cccc(O)c1`: the EC50 is 3.06 µM.

On to `C=C(C)COc1ccc(-c2[nH]ncc2Oc2cccc(OC)c2)c(O)c1`, for which the EC50 is 5.93 µM. Regarding `O=[N+]([O-])c1ccc(-c2cnc(SC(c3ccccc3)c3ccccc3)[nH]2)cc1`, the EC50 is 11 µM. For the molecule `Fc1cccc2sc(Nc3nnc(-c4ccccc4)o3)nc12`, the EC50 is 0.824 µM. For the molecule `CCc1ccc2c(c1)C1(NN=C(c3ccccc3)S1)C(=O)N2` (stereo unspecified), the EC50 was 0.245 µM.

For `Nc1nonc1-c1nc2ccccc2n1CC(=O)N/N=C/c1ccc(-c2cccc(C(=O)O)c2)o1`, the EC50 was 3.02 µM. For the molecule `O=C1CC(N(CCc2ccccc2)C(=S)Nc2ccccc2)C(=O)N1c1ccc(Br)cc1` (stereo unspecified), the EC50 is 3.07 µM. To `Cc1cc(-c2c(C)[nH]n(-c3ccc(Cl)cc3)c2=O)n[nH]1` belongs 1.78 µM; to `O=C(Cn1nnc(-c2ccccc2)n1)N/N=C/c1cc([N+](=O)[O-])ccc1O`, 0.75 µM; to `CCOC(=O)C1=C(c2ccc(OC)cc2)C(=O)c2ccccc2C1=O`, 1.78 µM. In the case of `CCC(C)c1ccccc1NS(=O)(=O)c1cnn(CC)c1` (stereo unspecified), the EC50 was > 15 µM (inactive). For `COc1ccc(/C=C2/C(=O)N(c3nc4ccccc4s3)N=C2CSc2ccc(Cl)cc2)cc1`, the EC50 was 0.518 µM. As to `Cc1ccc(S(=O)(=O)Nc2cc(Cl)c(O)c3ncccc23)cc1`, the EC50 was 7.11 µM. With `Cc1cccc(NC2=NC(C)(C)N=C(N)N2)c1`, the EC50 was 0.109 µM. Turning to `CCn1cc(C(=O)NCc2ccc3c(c2)OCO3)c(=O)c2cc(F)c(N3CCN(C(=O)c4ccco4)CC3)cc21`, the EC50 was 9.9 µM. With `Cc1cccc(OCC(=O)Nc2ccncc2)c1`, the EC50 was > 15 µM (inactive).

`COc1ccccc1N1CC(C(=O)Nc2nnc(SCC(=O)N3CCCC3)s2)CC1=O` (stereo unspecified): the EC50 was > 15 µM (inactive). `Nc1nc(CN2CCN(c3ccc(F)cc3)CC2)nc(N2CCCc3ccccc32)n1`: the EC50 is 0.178 µM. `Cc1nn(-c2ccccc2)c(C)c1/C=N/NC(=O)c1cc(-c2ccc(Cl)s2)[nH]n1`: the EC50 was 5.8 µM.

With `CSc1nc(Oc2ccc3ccccc3c2)c2sccc2n1`, the EC50 was 7.58 µM. With `COc1ccc(-c2nnc(NC(=O)c3ccc(S(=O)(=O)N4CCCc5ccccc54)cc3)o2)cc1`, the EC50 was 0.149 µM. Then `O=S(=O)(N[C@H]1C[C@@H](NS(=O)(=O)OCC(Cl)(Cl)Cl)C2CCCCC21)OCC(Cl)(Cl)Cl` (stereo partly specified), with 1.86 µM.

Take `O=[N+]([O-])c1ccc(S(=O)(=O)Nc2ccc(-c3csc(-c4ccccc4)n3)cc2)cc1`: the EC50 was 2.79 µM. As to `Cc1cccc2sc(NNC(=O)c3ccc(S(=O)(=O)N4CC(C)CC(C)C4)cc3)nc12` (stereo unspecified), the EC50 is 0.212 µM. Turning to `CC(=O)c1ccc(N2CCC(c3cc(-c4ccc(Cl)cc4Cl)n[nH]3)CC2)c([N+](=O)[O-])c1`, the EC50 is 2.15 µM. To `O=C(Nc1nnc(C2CCCCC2)s1)c1ccc(Br)s1` belongs 3.99 µM. For `O=C(O)c1ccc(S(=O)(=O)/N=C2\C=C(Nc3ccccc3F)C(=O)c3ccccc32)cc1`, the EC50 was 3.1 µM. As to `CCOC(=O)CCC(=O)O[C@H]1[C@H](O[C@@H]2[C@@H](C)[C@H](O[C@H]3C[C@@](C)(OC)[C@@H](O)[C@H](C)O3)[C@@H](C)C(=O)O[C@H](CC)[C@@](C)(O)[C@H](O)[C@@H](C)C(=O)[C@H](C)C[C@@]2(C)O)O[C@H](C)C[C@@H]1N(C)C`, the EC50 was below 0.06 µM. In the case of `COc1cc(F)ccc1CN1CCC(n2nccc2NC(=O)C2CCOC2)CC1` (stereo unspecified), the EC50 is > 15 µM (inactive).

As for `COc1cc2ccccc2cc1C(=O)Nc1ccc(NC(=O)c2cccs2)cc1`, the EC50 is 6.02 µM. Then `Cc1cc(C)c2nc(-c3ccncc3)cc(C(=O)N3CCN(Cc4ccccc4Cl)CC3)c2c1`, with 4.72 µM; and `Nc1nc(-c2ccccc2)c(N=Nc2cccc3ccccc23)s1`, with 4 µM; and `Oc1ccc(-c2c(C3=CCCCC3)sc3ccccc23)cc1`, with 4.97 µM. In the case of `CC(C)Oc1ccc(C(=O)Nc2nnc(C3=COCCO3)o2)cc1`, the EC50 is 0.794 µM. To `Oc1c(CN2CCN(c3ccc(F)cc3)CC2)cc(Cl)c2cccnc12` belongs 1.01 µM; to `COc1ccc(OC)c(NC(=O)NCc2cccnc2)c1`, > 15 µM (inactive).

For `COc1ccc2cc(C(=O)C3CCCN(Cc4cccc(C)n4)C3)ccc2c1` (stereo unspecified), the EC50 is 1.84 µM.

Consider `Cc1nc2c(C(=O)NCc3ccc4c(c3)OCO4)cnn2c(C)c1Cc1ccc(F)cc1Cl`, for which the EC50 is 14.7 µM. Then `COc1ccccc1N1CCN(Cc2nc(N)nc(Nc3ccc(C)c(Cl)c3)n2)CC1`, with 7.99 µM; and `Brc1cc(-c2ccccc2)nc(-c2ccccc2)n1`, with 12.1 µM. As to `CCC(=C/c1sc2ccc3ccccc3c2[n+]1C)/C=C1\Sc2ccc3ccccc3c2N1C`, the EC50 was 2.67 µM. For `O=S(=O)(Nc1cccc2c1CCCC2)c1ccc(Cl)cc1`, the EC50 is 2.92 µM. Then `O=C(Cc1ccccc1)N/N=C/c1cc(Br)cc(Cl)c1O`, with 1.52 µM; and `O=S(=O)(Cc1cc(NCc2ccccc2)nc(-c2ccccn2)n1)c1ccccc1`, with 0.808 µM. For the molecule `CC(C)N1CCc2c(sc(NC(=O)c3ccc([N+](=O)[O-])o3)c2C(N)=O)C1`, the EC50 was 3.5 µM. To `CCOc1cc(/C=C2\C(=O)N(c3nc(-c4ccc(Br)cc4)cs3)N=C2c2ccccc2)ccc1O` belongs 1.77 µM; to `Cc1ccc(NC(=S)NC(=O)c2ccc(-c3ccc(Cl)cc3)o2)c(O)c1`, 0.531 µM. As for `Clc1ccc2c(N/N=C/c3cccc(Br)c3)ccnc2c1`, the EC50 is 2.86 µM. In the case of `CN1C(=O)/C(=C/c2ccc(C(F)(F)F)cc2)Sc2ccc(C(=O)N3CCN(c4ccccn4)CC3)cc21`, the EC50 was 1.57 µM. Take `CCc1cc(-c2n[nH]c(C)c2Oc2ccc(C(C)C)cc2)c(O)cc1O`: the EC50 was 1.85 µM. For the molecule `CC(Oc1ccc(Cl)cc1Cl)C(=O)Nc1ccc2oc(-c3ccncc3)nc2c1` (stereo unspecified), the EC50 is 6.24 µM. Regarding `Cc1cc2n(n1)C(c1c[nH]c3ccccc13)Nc1ccccc1-2` (stereo unspecified), the EC50 is 7.65 µM. To `Cc1cc(C(=O)N/N=C/c2ccc([N+](=O)[O-])s2)n[nH]1` belongs 2.39 µM; to `Cn1c2ccccc2c(=O)c2c(=O)n(-c3ccc(F)cc3)c(-c3cccs3)nc21`, 4.76 µM. With `CC12CCC(C(=O)Nc3cccc(Cl)c3Cl)([C@H](Br)C1=O)C2(C)C` (stereo partly specified), the EC50 is > 15 µM (inactive). As for `CCOC(=O)c1cc(-c2cccs2)nc2c1c(C)nn2-c1ccccn1`, the EC50 is 2.64 µM. Regarding `CC/C(=C\C=C\[C@@H]1C=C[C@@H]2CCC[C@H]2[C@@H]1C(=O)c1ccc[nH]1)[C@@H]1O[C@@H]([C@@H](C)C(=O)O)CC[C@@H]1C`, the EC50 is 0.127 µM. As to `COc1cccc(NC(=O)Nc2nc(SC(C)(C)C)ns2)c1`, the EC50 was 8.16 µM. With `Cc1ccc(OP(=O)(Nc2cccc(C)c2)Oc2ccc(C)cc2)cc1`, the EC50 was 9.09 µM. In the case of `N#C/C(=C(/O)CN1CCN(c2ccccc2F)CC1)c1nc(-c2ccccc2)cs1`, the EC50 was 12.2 µM.

With `FC(F)(F)c1nc(N2CCN(c3ccccc3)CC2)nc2c1CCCCC2`, the EC50 was 2.77 µM. Consider `COc1ccc(N2CCN(C(=O)c3cc(C)oc3C)CC2)cc1`, for which the EC50 is > 15 µM (inactive).

On to `S=C(NCCSCc1ccc(Cl)cc1Cl)Nc1ccccc1`, for which the EC50 was 7.32 µM. Take `Cc1ccc(S(=O)(=O)Nc2ccc(Cl)cc2)cc1NC(=O)c1cc2c(s1)CCCC2`: the EC50 is 6.63 µM. `CCOc1ccc(/C=N/NC(=S)NC2CC3CC2C2C=CCC32)cc1` (stereo unspecified): the concentration giving a half-maximal response (EC50) is 5.48 µM. Consider `S=C(NCC1CCCCC1)Nc1ccc(Oc2ccccc2)cc1`, for which the EC50 was 11 µM. As to `O=C(O)CN1C(=O)/C(=C\c2cc(Br)ccc2OCc2ccc(Cl)cc2Cl)SC1=S`, the EC50 was 1.51 µM. To `C#C[C@]1(O)CC[C@H]2[C@@H]3CCc4cc(OC5CCCC5)ccc4[C@H]3CC[C@@]21C` belongs 2.6 µM; to `O=C(N/N=C/c1cc(O)ccc1Br)c1cccnc1`, 2.88 µM; to `Cc1cc(SCC(=O)c2ccc(O)c(O)c2)n2nc(C)c(-c3ccccc3)c2n1`, 5.05 µM. Take `Cc1ccc2nc(-c3ccc(NS(=O)(=O)c4ccc(F)cc4)cc3)sc2c1`: the EC50 is 3.31 µM. Regarding `O=C(N/N=C/c1cc(Cl)cc([N+](=O)[O-])c1O)c1ccccc1NS(=O)(=O)c1cccs1`, the EC50 is 12 µM.

In the case of `FC(F)(F)c1cccc(NC(=S)NNC(=S)Nc2cccc(C(F)(F)F)c2)c1`, the EC50 is 0.804 µM. Take `Cc1ccc2sc(NNC(=O)c3cc(-c4cccs4)nc4ccccc34)nc2c1C`: the EC50 is 0.859 µM. Then `CC(OC(=O)Cc1n[nH]c(=O)c2ccccc12)C(=O)Nc1ccc(Cl)cn1` (stereo unspecified), with 14.7 µM; and `CC(C)S(=O)(=O)c1csc(NC(=O)Nc2cc(Cl)ccc2Cl)c1Cl`, with 1.65 µM; and `CCC1=NN(C(=O)c2ccccc2O)C(O)(c2ccccc2)C1` (stereo unspecified), with 1.94 µM. For the molecule `COc1cccc(N2C(=O)C3NN=C(C(=O)CN4C(=O)c5ccccc5C4=O)C3C2=O)c1` (stereo unspecified), the EC50 is > 15 µM (inactive).

For the molecule `CCOC(=O)c1csc(Nc2nc3ccc(F)cc3s2)n1`, the EC50 was 3.21 µM. In the case of `CC(C)CN(Cc1cc(=O)oc2cc3c(cc12)CCCC3)CC(C)C`, the EC50 is 7.82 µM. For the molecule `Cc1cccc(-c2oc3ccccc3c2-c2ccc3c(c2)OCO3)c1`, the EC50 was 3.65 µM.

For `CC1CCCN(S(=O)(=O)c2ccc(C(=O)Nc3nnc(C4CC4)o3)cc2)C1` (stereo unspecified), the EC50 is 3.3 µM.

Turning to `Oc1ccc(N=Nc2ccc3c(c2)OCCO3)c2cccnc12`, the EC50 was 0.257 µM. Take `Cn1ncc2c(Nc3ccc(Cl)c(Cl)c3)ncnc21`: the EC50 was 4.82 µM. In the case of `CNC[C@@H](CC1CCCCC1)NC[C@H](CC(C)C)NCCc1cccc(C(F)(F)F)c1`, the EC50 is 5.4 µM.

Turning to `CCc1ccc2[nH]c(=O)c(C3C(C#N)=C(N)Oc4c3ccc3cccnc43)cc2c1` (stereo unspecified), the EC50 is 1.63 µM.

As to `O=C1c2cccc3c([N+](=O)[O-])ccc(c23)C(=O)N1O`, the EC50 is 1.16 µM.

Consider `CCOC(=O)c1c(S(=O)(=O)N2CCCCCC2)c(C)n(C)c1C`, for which the EC50 was > 15 µM (inactive). On to `O=C(CNc1ccc(F)cc1)N/N=C/c1c(O)ccc2ccccc12`, for which the EC50 was 1.12 µM. Then `COc1ccc(-c2nc(-c3cccs3)c(-c3cccs3)[nH]2)cc1OC`, with 4.32 µM.
